Experimental data as given in publication PMC6201084 (Antimicrobial Agents and Chemotherapy, 2018).
Like-named read-outs stand apart in the source and are kept apart here.

Experiments:
[1] = target: neuraminidase (NA) of influenza B/Minnesota/23/2015 (WT-D197) (Influenza B virus, UniProt A0A1S5RAG6); type: biochemical; conditions: three independent experiments, read-out: IC50 (nM), mean ± SD
[2] = target: neuraminidase (NA) of influenza B/England/598/2014 (WT-H273) (Influenza B virus, UniProt A0A1S5RAG6); type: biochemical
neuraminidase (NA) of influenza B/England/598/2014 (WT-H273), sequence (A0A1S5RAG6 entry or part of it, added parts left off): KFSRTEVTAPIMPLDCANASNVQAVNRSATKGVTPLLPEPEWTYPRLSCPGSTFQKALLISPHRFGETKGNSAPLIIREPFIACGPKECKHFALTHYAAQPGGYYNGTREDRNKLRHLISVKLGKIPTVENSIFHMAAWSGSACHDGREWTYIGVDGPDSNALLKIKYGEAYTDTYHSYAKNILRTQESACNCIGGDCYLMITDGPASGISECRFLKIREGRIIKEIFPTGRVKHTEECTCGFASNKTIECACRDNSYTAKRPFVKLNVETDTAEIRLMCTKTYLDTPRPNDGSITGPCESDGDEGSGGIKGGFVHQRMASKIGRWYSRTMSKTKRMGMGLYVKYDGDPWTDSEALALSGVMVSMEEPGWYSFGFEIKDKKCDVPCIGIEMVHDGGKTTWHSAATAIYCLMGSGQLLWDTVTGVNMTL

neuraminidase (NA) of influenza B/Minnesota/23/2015 (WT-D197), sequence (A0A1S5RAG6 entry or part of it, added parts left off): as above

Which IC50 [1] does the source give for `CCC(CC)[C@H](NC(C)=O)[C@@H]1[C@H](O)[C@@H](C(=O)O)C[C@H]1N=C(N)N` [Peramivir, peramivir] here?
The IC50 was 1 ± 0.1 nM.

What about the IC50 ([2]; WT-H273 virus, three independent experiments, read-out: IC50 (nM), mean ± SD) of the same molecule?
Its IC50 is 1 ± 0.05 nM.

What about the IC50 ([2]; approximate value given in discussion for wild-type influenza B viruses, read-out: IC50 for wild-type influenza B viruses) of the same molecule?
The IC50 was about 1 nM.
